Here are results for 37 compounds from ChEMBL document CHEMBL1127196, “The use of synthetic peptide combinatorial libraries for the determination of peptide ligands in radio-receptor assays: Opioid peptides” (Bioorg Med Chem Lett, 1993).

For the assay, the target named is Mu-type opioid receptor (Rattus norvegicus, UniProt P33535). The assay can be described thus: Concentration required for 50% inhibition of [3H]DAGO binding to mu opioid receptor in crude rat brain homogenates. The format is tissue-based.
Mu-type opioid receptor, sequence (P33535 whole entry): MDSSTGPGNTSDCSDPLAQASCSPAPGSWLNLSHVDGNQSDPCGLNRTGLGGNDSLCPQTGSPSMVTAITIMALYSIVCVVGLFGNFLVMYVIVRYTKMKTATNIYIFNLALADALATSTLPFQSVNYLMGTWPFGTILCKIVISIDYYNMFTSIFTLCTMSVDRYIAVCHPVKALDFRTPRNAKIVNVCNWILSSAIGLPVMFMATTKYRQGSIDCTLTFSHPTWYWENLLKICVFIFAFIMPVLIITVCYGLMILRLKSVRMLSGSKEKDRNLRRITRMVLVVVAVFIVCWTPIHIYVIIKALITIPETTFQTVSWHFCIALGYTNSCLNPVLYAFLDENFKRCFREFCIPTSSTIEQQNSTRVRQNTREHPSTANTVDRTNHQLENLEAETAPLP

Turning to `CSCC[C@H](NC(=O)[C@H](Cc1ccccc1)N(N)C(=O)CNC(=O)CN(N)C(=O)[C@H](Cc1ccc(ON)cc1)NN)C(=O)N[C@H](C(N)=O)C(C)C`, the IC50 was found to be 107 nM.
On to `CSCC[C@H](NC(=O)[C@H](Cc1ccccc1)NC(O)CNC(=O)CNC(=O)[C@@H](N)Cc1ccc(O)cc1)C(N)=O` (some centres not stated), for which the IC50 worked out at 34 nM.
Regarding H-YGGFLA-NH2, the IC50 stood at 60 nM.
The compound H-YGGFLD-NH2 showed an IC50 of 214 nM.
In the case of H-YGGFLE-NH2, the IC50 was 315 nM.
H-YGGFLF-NH2 yielded an IC50 of 381 nM.
For H-YGGFLG-NH2 the value was 59 nM; for H-YGGFLH-NH2, 141 nM.
In the case of H-YGGFLI-NH2, the IC50 worked out at 168 nM.
For H-YGGFLK-NH2 the value was 201 nM.
Turning to H-YGGFLL-NH2, the IC50 was 98 nM. Compared with the last compound, the IC50 is about 2.1-fold lower.
Compound H-YGGFLM-NH2 displayed an IC50 of 112 nM.
For H-YGGFLN-NH2 the value was 78 nM; for H-YGGFLP-NH2, 108 nM.
For H-YGGFLQ-NH2, the IC50 stood at 75 nM.
For H-YGGFLR-NH2, the IC50 was 158 nM. This IC50 lies about 2.1-fold higher than the previous one.
Compound H-YGGFLS-NH2 came in with an IC50 of 65 nM.
Consider H-YGGFLT-NH2, for which the half-maximal inhibitory concentration (IC50) was 65 nM.
In turn, H-YGGFLV-NH2 gave an IC50 of 189 nM.
As for H-YGGFLY-NH2, the IC50 was determined as 77 nM.
In turn, H-YGGFMA-NH2 came in with an IC50 of 28 nM. Compared with the last compound, the IC50 is about 2.8-fold lower.
The compound H-YGGFMD-NH2 had an IC50 of 167 nM.
For H-YGGFME-NH2 the value was 204 nM; for H-YGGFMF-NH2, 223 nM; for H-YGGFMG-NH2, 35 nM.
H-YGGFMH-NH2: the IC50 came to 37 nM.
The result for H-YGGFMI-NH2 reads 80 nM; that for H-YGGFMK-NH2, 41 nM; that for H-YGGFML-NH2, 35 nM.
In turn, H-YGGFMM-NH2 returned an IC50 of 30 nM.
H-YGGFMN-NH2: the IC50 was determined as 28 nM.
In the case of H-YGGFMP-NH2, the IC50 was found to be 57 nM.
Compound H-YGGFMQ-NH2 returned an IC50 of 40 nM.
On to H-YGGFMR-NH2, for which the IC50 was 46 nM. The IC50 values of the last two compounds are within 1.5-fold of each other.
The compound H-YGGFMS-NH2 gave an IC50 of 34 nM.
For the compound H-YGGFMT-NH2, the IC50 was 41 nM. This IC50 and that of the compound before are within 1.5-fold of each other.
With H-YGGFMY-NH2, the IC50 came to 39 nM.

In general, IC50 refers to the concentration that inhibits the measured activity by half. Read a low IC50 as inhibition by little substance.
